Entries after “also recorded” stand apart in the source; their conditions may differ. Bridges are numbered along the chain shown (N, C = ends). Where no end group is shown, it is not given here. [ ]: non-standard residue; d: D form. 1Nal = N[C@@H](Cc1cccc2ccccc12)C(=O)O

The values below come from US20090281278A1, “MODIFIED MOLECULES WHICH PROMOTE HEMATOPOIESIS” (priority 2006, published 2009).

The subject of this assay is TF-1 cells. Nature of the assay: TF-1 proliferation assay (MTT/MTS, number of viable cells). The class given is cell-based, human. Particulars: for efficacy and potency (EPO mimetic activity) compared with reference peptides: TF-1 proliferation, normalized plots. Here is the method:
An experiment was performed in a standard TF-1 cell assay as recommended by the European Pharmacopoe for the determination of EPO-like activity in vitro (please also see below). Basically, TF-1 cells (their proliferation being dependent from the presence of EPO-like activity) are cultured in the presence various concentrations of EPO or EPO-mimetic substances. The resulting cell numbers are quantified using colorimetric MTT-assay and photometric measurements.
TF1 cells in logarithmic growth phase (2×10^5-1×10^6 cells/ml grown in RPMI with 20% fetal calf serum (FCS) and 0.5 ng/ml IL-3) were counted, and the number of cells needed to perform an assay were centrifuged (5 min. 1500 rpm) and resuspended in RPMI with 5% FCS without IL-3 at 300 000 cells/ml. Cells were precultured in this (starvation) medium without IL-3 for 48 hours. Before starting the assay the cells were counted again.
Shortly before starting the assay stock solutions of peptides and EPO were prepared. Peptides were weighed and dissolved in RPMI with 5% FCS up to a concentration of 1 mM, 467 μM or 200 μM. EPO stock solutions were 10 nM or 20 nM. 292 μl of these stock solutions were pipetted into one well of a 96 well culture plate—one plate was taken for each substance to be tested. Two hundred μl of RPMI with 5% FCS were pipetted into seventeen other wells in each plate. Ninety-two μl of stock solution were pipetted into a well containing 200 μl medium. The contents were mixed, and 92 μl from this well was transferred to the next, and so forth. This way a dilution series (18 dilutions) of each substance was prepared such that in each consecutive well the concentration was 1:√10 of the concentration in the well before that. From each well 3×50 μl was transferred to three empty wells. This way each concentration of substance was measured in quadruplicate. Note that the uppermost and lowermost line of wells of each plate was left void.
Pre-treated (starved) cells were centrifuged (5 min. 1500 rpm) and resuspended in RPMI with 5% FCS at a concentration of 200 000 cells per ml. […]
To measure the number of live cells per well, ready-to-use […] (Promega, CellTiter 96 Aqueous One Solution Cell Proliferation Assay) was thawed in a 37° C. water bath. […] Twenty-five μl of a 10% SDS solution was added, and plates were measured in an ELISA reader (Genios, Tecan). […]
For optimal results TF-1 cells should be cultured for two days in the absence of any cytokine (starved) before starting the assay. Three days after starting the assay, cell proliferation is measured indirectly by assaying the number of viable cells.
A tetrazolium reagent, called MTS, is added which is reduced to coloured formazan. […] The amount of formazan is measured spectrophotometrically. […]

On to “Ac-GGTYSCHFGKLT-Na1-VCKKQRG-Am (Ac-GGTYSCHFGKLT[1Nal]VCKKQRG-NH2; cysteine pairing not given here) [BB68]”, for which the “efficacy and potency (EPO mimetic activity) compared with reference peptides” value is “even more effective than EMP1 and BB49; also recorded: improved effect”.
As for “Ac-GGTYSCHFGKLTWVCKKQGG (cysteine pairing not given here) [BB49]”, the “efficacy and potency (EPO mimetic activity) compared with reference peptides” value was “efficacy and potency in the same range as EMP1”.
For “GGTYSCHFGPLTWVCKPQGG [EMP1, reference compound]”, the “agonist behaviour (maximal response compared with EPO)” value (peptides in their monomeric form) is “partial agonists”.
As for “AGEM40—HES: peptide (AGEM40) HESylated according to the supravalence principle (Ac-CGGTYSCHFGKLT[1Nal]VCKKQRGGGTYSCHFGKLT[1Nal]VCKKQRG-NH2; disulfide 7-16, 27-36 (inferred); not fully specified (residue 1); also: HES (hydroxyethyl starch) conjugate, maleimide-linked)”, the “efficacy and potency (EPO mimetic activity) compared with reference peptides” value was “highly effective and potent”.
